Values after ≈ are worked out from the molar mass of the structure shown. Active and inactive are the calls of the source. No cut-off for these calls is given here.
Columns and labels:
Staphylococcus aureus [1] = assay: Antibacterial activity against Staphylococcus aureus T991 by Etest method; assay type: functional
Staphylococcus aureus [2] = assay: Antibacterial activity against Staphylococcus aureus T2019 with G2576T mutation in 23S rRNA genes by Etest method; assay type: functional
Staphylococcus aureus [3] = assay: Antibacterial activity against Staphylococcus aureus T2019 with G2576T mutation in 23S rRNA genes by disc diffusion method; assay type: functional, organism-based
Staphylococcus aureus [4] = assay: Antibacterial activity against Staphylococcus aureus T991 by disc diffusion method; assay type: functional, organism-based
Staphylococcus aureus [5] = assay: Antibacterial activity against Staphylococcus aureus T1900 expressing 23S rrn3 G2576T, rrn4 G2576T and rrn5 G2576T mutants by Etest method; assay type: functional
Staphylococcus aureus [6] = assay: Antibacterial activity against Staphylococcus aureus T1910 expressing 23S rrn2 G2576T, rrn3 G2576T, rrn4 G2576T and rrn5 G2576T mutants by Etest method; assay type: functional
Staphylococcus aureus [7] = assay: Antibacterial activity against Staphylococcus aureus T1888 expressing 23S rrn 3 G2576T and rrn 5 G2576T mutants by Etest method; assay type: functional
Staphylococcus aureus [8] = assay: Antibacterial activity against Staphylococcus aureus T2019/50 expressing 23S rrn1 G2576T, rrn3 G2576T, rrn4 G2576T and rrn5 G2576T mutants by Etest method; assay type: functional
Staphylococcus aureus [9] = assay: Antibacterial activity against Staphylococcus aureus T2019 expressing 23S rrn1 G2576T, rrn2 G2576T, rrn3 G2576T, rrn4 G2576T and rrn5 G2576T mutants by Etest method; assay type: functional

Molecule | MIC (Staphylococcus aureus [1]) | MIC (Staphylococcus aureus [2]) | other results
CC(=O)O[C@H]1C[C@@]2(C)[C@@H](C[C@@H](O)[C@H]3[C@@]4(C)CC[C@@H](O)[C@@H](C)[C@@H]4CC[C@@]32C)/C1=C(\CCC=C(C)C)C(=O)O [FUSIDIC ACID] | 0.19 µg/mL (≈ 0.368 µM) | 0.5 µg/mL (≈ 0.968 µM) | –
CC[C@H]1OC(=O)[C@H](C)[C@@H](O[C@H]2C[C@@](C)(OC)[C@@H](O)[C@H](C)O2)[C@H](C)[C@@H](O[C@@H]2O[C@H](C)C[C@H](N(C)C)[C@H]2O)[C@](C)(O)C[C@@H](C)C(=O)[C@H](C)[C@@H](O)[C@]1(C)O [ERYTHROMYCIN] | > 256 µg/mL | > 256 µg/mL | –
GENTAMICIN | 256 µg/mL | 256 µg/mL | –
O=C(N[C@H](CO)[C@H](O)c1ccc([N+](=O)[O-])cc1)C(Cl)Cl | – | – | MIC (Staphylococcus aureus [3]): inactive; Activity (Staphylococcus aureus [4]): Active
CCC[C@@H]1C[C@@H](C(=O)N[C@@H]([C@H]2O[C@H](SC)[C@H](O)[C@@H](O)[C@H]2O)[C@H](C)Cl)N(C)C1 [CLINDAMYCIN] | > 256 µg/mL | > 256 µg/mL | –
CN(C)c1cc(NC(=O)CNC(C)(C)C)c(O)c2c1C[C@H]1C[C@H]3[C@H](N(C)C)C(O)=C(C(N)=O)C(=O)[C@@]3(O)C(O)=C1C2=O [TIGECYCLINE] | 1 µg/mL (≈ 1.71 µM) | 0.75 µg/mL (≈ 1.28 µM) | –
C[C@H]1c2cccc(O)c2C(=O)C2=C(O)[C@]3(O)C(=O)C(C(N)=O)=C(O)[C@@H](N(C)C)[C@@H]3[C@@H](O)[C@@H]21.O [DOXYCYCLINE] | 6 µg/mL | 6 µg/mL | –
CC(=O)NC[C@H]1CN(c2ccc(N3CCOCC3)c(F)c2)C(=O)O1 [LINEZOLID] | 1 µg/mL (≈ 2.96 µM) | 128 µg/mL (≈ 379 µM) | MIC (Staphylococcus aureus [5]): 32 µg/mL (≈ 94.9 µM); MIC (Staphylococcus aureus [6]): 64 µg/mL (≈ 190 µM); MIC (Staphylococcus aureus [7]): 8 µg/mL (≈ 23.7 µM); MIC (Staphylococcus aureus [8]): 64 µg/mL (≈ 190 µM); MIC (Staphylococcus aureus [9]): 128 µg/mL (≈ 379 µM)
